{
  "source": "patent US9750708B2",
  "about": "(The Regents of the University of California, priority 2006, dated 2017)",
  "key": {"[1]": {"tested_on": "mice with the gene mutation for Huntington's disease", "conditions": "mouse, in vivo; cited from earlier work"}, "[2]": {"assay": "Symptoms after intraluminal cysteamine delivery", "format": "in vivo, human", "conditions": "cystinosis subject", "text": "(§1) Immediately proximal to the balloon was an infusion port (1 mm diameter) through which the drug was delivered. […] On day 1 of the study, the nasoenteric tube was inserted into the stomach. By day 3 of the study the tube had passed into the proximal small intestine (SI) just distal to the ligament of Treitz (confirmed fluoroscopically). The balloon was then inflated, and peristalsis propelled the tube distally. Tube position within the cecum was confirmed fluoroscopically on day 5 (day 7 in 4 patients because of slow transit). If the tube had migrated too far, it was retracted into the desired location.\nOnly 2 patients (1 male, 1 female) with cystinosis reported regular GI symptoms before the study, and these had responded to acid-suppression therapy. […] No other symptoms were reported after any other cysteamine delivery in the children with cystinosis. There were no associated adverse events with tube placement or removal."}, "leukocyte cystine [3]": {"tested_on": "leukocyte cystine", "conditions": "cited from earlier work"}, "gastrin": {"tested_on": "gastrin", "assay": "Serum gastrin after intraluminal delivery of cysteamine (radioimmunoassay)", "format": "in vivo, human", "text": "as §1\n(§2) After an overnight fast (except for water) blood samples were taken at baseline and at varying intervals after intraluminal delivery of cysteamine. […] Gastrin was measured in picograms/mL with the Diagnostic Products Corporation (Los Angeles, Calif.) gastrin radioimmunoassay-assay kit. Leukocyte cystine levels were measured in nmol half-cystine per mg protein by the Cystine Determination Lab (La Jolla, Calif.).\nREML repeated measures analyses of variance were also performed as described above on gastrin levels. […] A 5% significance level was used without adjustment for all statistical testing."}, "[4]": {"assay": "Plasma cysteamine after delivery of cysteamine through a nasoenteric tube into stomach, small intestine or cecum", "format": "in vivo", "conditions": "human, 10 mg/kg/dose of base, Mean plasma cysteamine Cmax", "method": "Adult control patients were recruited locally. […] None of the patients had undergone kidney transplantation. Baseline chemistry, Helicobacter pylori serologic study, complete blood count, and urinalysis were performed.\nas §1, §2\nDifferences between means for the 3 sites were tested, plus group and group x site interaction effects for the combined groups. If a site effect was detected, Tukey's HSD was applied to determine which sites differed from each other."}, "leukocyte cystine [5]": {"tested_on": "leukocyte cystine", "assay": "Leukocyte cystine levels after intraluminal delivery of cysteamine in patients with cystinosis", "format": "in vivo, human", "text": "as §1, §2\nAOC is computationally analogous to area under the curve, but it is applied when values are predominantly decreasing below baseline values. Large AOC values reflect large decreases, and a negative AOC reflects a net increase in value. Main effects for site of delivery, time after delivery, and the interaction between site and time were tested, except just the site effect was tested for AOCs. In the absence of significant interaction when a main effect was detected, Tukey's honestly significant difference test (HSD) was applied to identify where differences occurred within a 5% family wise error rate. The Tukey HSD procedure controls for overall significance level when performing all pairwise comparisons."}, "[6]": {"conditions": "children with cystinosis; cited from earlier work"}},
  "data": [
    {"smiles": "NCCSSCCN", "note": "[Cystamine, cystamine]", "values": [
      {"measurement": "Effect in mice with the gene mutation for Huntington's disease", "setting": "[1]", "result": "alleviate tremors and prolong life"}
    ]},
    {"smiles": "NCCS", "note": "[cysteamine]", "values": [
      {"measurement": "Symptoms after infusion into the proximal small intestine", "setting": "[2]", "result": "did not have any symptoms"},
      {"measurement": "Symptoms after intragastric cysteamine", "setting": "[2]; about 15 minutes after delivery", "result": "severe retching and emesis"},
      {"measurement": "Period of activity", "setting": "leukocyte cystine [3]; oral Cystagon capsules", "result": "5 to 6", "unit": "h"},
      {"measurement": "Time leukocyte cystine level remained suppressed", "setting": "leukocyte cystine [3]; single dose administered intravenously", "result": "more than 24 hours"},
      {"measurement": "Depletion of intracellular cystine", "setting": "leukocyte cystine [3]; taken regularly, measured in circulating white blood cells", "result": "up to 90%"},
      {"measurement": "Gastrin level after gastric cysteamine", "setting": "gastrin; 1 child with severe GI symptoms, 30 minutes after gastric delivery, baseline 70 pg/mL", "result": 121, "unit": "pg/mL"},
      {"measurement": "Gastrin levels, baseline and post-cysteamine (undetectable)", "setting": "gastrin; control group, more than half of the levels, any delivery site", "result": "< 25", "unit": "pg/mL"},
      {"measurement": "Cmax", "setting": "[4]; other: infused through nasoenteric tube into cecum, combined cystinosis and control subjects, delivery into cecum", "result": 22.5, "unit": "µM"},
      {"measurement": "Cmax", "setting": "[4]; other: infused through nasoenteric tube into cecum, control subjects, delivery into cecum", "result": 23.1, "unit": "µM"},
      {"measurement": "Cmax", "setting": "[4]; other: infused through nasoenteric tube into cecum, cystinosis subjects, delivery into cecum", "result": 21.9, "unit": "µM"},
      {"measurement": "Cmax", "setting": "[4]; other: infused through nasoenteric tube into small intestine, combined cystinosis and control subjects, delivery into small intestine", "result": 53.2, "unit": "µM"},
      {"measurement": "Cmax", "setting": "[4]; other: infused through nasoenteric tube into small intestine, control subjects, delivery into small intestine", "result": 51.1, "unit": "µM"},
      {"measurement": "Cmax", "setting": "[4]; other: infused through nasoenteric tube into small intestine, cystinosis subjects, delivery into small intestine", "result": 55.8, "unit": "µM"},
      {"measurement": "Cmax", "setting": "[4]; other: infused through nasoenteric tube into stomach, combined cystinosis and control subjects, delivery into stomach", "result": 37.8, "unit": "µM"},
      {"measurement": "Cmax", "setting": "[4]; other: infused through nasoenteric tube into stomach, control subjects, delivery into stomach", "result": 39.5, "unit": "µM"},
      {"measurement": "Cmax", "setting": "[4]; other: infused through nasoenteric tube into stomach, cystinosis subjects, delivery into stomach", "result": 35.5, "unit": "µM"},
      {"measurement": "Time leukocyte cystine levels remained at the 1-hour level", "setting": "leukocyte cystine [5]; after delivery, at 48 hours not returned to pre-cysteamine level", "result": 24, "unit": "h"},
      {"measurement": "Time leukocyte cystine levels remained below pre-delivery levels", "setting": "leukocyte cystine [5]; single dose of cysteamine into the small intestine (FIG. 3)", "result": "up to 12 hours"},
      {"measurement": "Decrease in leukocyte cystine after cysteamine delivery", "setting": "leukocyte cystine [5]; within an hour of delivery", "result": "dramatic decrease in leukocyte cystine"}
    ]},
    {"smiles": "COc1ccc2c(c1)c(CC(=O)O)c(C)n2C(=O)c1ccc(Cl)cc1", "note": "[indomethacin]", "values": [
      {"measurement": "Reduction of urine volume and liquid consumption", "setting": "[6]", "result": "about 30%"}
    ]}
  ]
}
